What was measured:
AChE [1] = molecular target: T1, AChE (Homo sapiens, UniProt P22303); experiment: AChE inhibition, modified Ellman approach; format: biochemical; details: for inhibition at 1000 µM: 10^-3 M; for inhibition at 100 µM: 10^-4 M; for inhibition at 10 µM: 10^-5 M; for inhibition at 1 µM: 10^-6 M; for inhibition at 0.1 µM: 10^-7 M; for inhibition at 0.01 µM: 10^-8 M; for inhibition at 0.001 µM: 10^-9 M
Procedure: (§1) According to the modified Ellman approach outlined in our earlier works − the AChE and BChE inhibitory activities of the obtained compounds were evaluated.

human BChE = human BChE (Homo sapiens, UniProt P06276); experiment: biochemical; details: read-out: BChE % Inhibition;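 further: inhibition of BChE determined with an adapted Ellman method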
Procedure: as §1

[2] = molecular target: T2, Human β-Secretase (BACE-1) (Homo sapiens, UniProt P56817); experiment: Human β-Secretase (BACE-1) Inhibitor Screening Assay kit (fluorometric); format: biochemical
T2 construct: purchased K720-100
Excerpt: The experimental procedure was based on the “Human β-Secretase (BACE-1) Inhibitor Screening Assay” kit (Human β-Secretase (BACE1) Inhibitor Screening Kit (Fluorometric)-Catalog no: K720-100) protocol based on the fluorometric method as performed previously.

AChE [3] = molecular target: T1, AChE; experiment: Kinetic studies of AChE enzyme inhibition (Lineweaver–Burk, secondary plot); format: biochemical; details: Lineweaver–Burk plots
Procedure: Enzyme kinetics studies were conducted to determine the mechanism of inhibition of AChE using a procedure similar to that of the inhibition assay for cholinesterase enzymes. […] Linear Lineweaver–Burk graphs were used to estimate the type of inhibition of this compound. The velocity curves of the substrates were recorded in the absence and presence of compound 4m. […] In each case, the initial velocity measurements were obtained at different substrate (ATC) concentrations ranging from 600 to 18.75 μM.
For this purpose, this compound was prepared at different concentrations (IC50, 2xIC50 and IC50/2). Moreover, a substrate (ATC) was used at various concentrations (600, 300, 150, 75, 37.5, and 18.75 μM). The enzyme kinetics assay was carried out as in our previous. − Lineweaver–Burk plots were formed using Microsoft Office Excel 2013. The K i values of the compound were easily calculated from the second plot with a common intercept on the x-axis (corresponding to –K i).

T1 sequence (P22303 32-614): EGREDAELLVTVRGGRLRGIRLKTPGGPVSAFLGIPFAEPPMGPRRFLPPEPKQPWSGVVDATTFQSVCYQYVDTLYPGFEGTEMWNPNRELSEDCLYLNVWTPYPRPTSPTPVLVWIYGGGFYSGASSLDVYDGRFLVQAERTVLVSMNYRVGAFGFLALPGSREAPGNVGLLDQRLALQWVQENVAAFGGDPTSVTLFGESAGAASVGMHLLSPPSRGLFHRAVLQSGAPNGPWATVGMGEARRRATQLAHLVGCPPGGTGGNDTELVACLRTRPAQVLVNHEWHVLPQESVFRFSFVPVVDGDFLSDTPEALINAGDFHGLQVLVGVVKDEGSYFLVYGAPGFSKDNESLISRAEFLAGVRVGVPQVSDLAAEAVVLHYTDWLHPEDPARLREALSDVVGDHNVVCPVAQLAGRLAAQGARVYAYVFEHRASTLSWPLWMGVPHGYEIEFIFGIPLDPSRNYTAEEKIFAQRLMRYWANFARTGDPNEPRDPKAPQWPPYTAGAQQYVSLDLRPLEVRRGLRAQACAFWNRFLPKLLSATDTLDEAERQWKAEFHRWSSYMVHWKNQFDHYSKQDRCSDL
T2 sequence (P56817 46-501): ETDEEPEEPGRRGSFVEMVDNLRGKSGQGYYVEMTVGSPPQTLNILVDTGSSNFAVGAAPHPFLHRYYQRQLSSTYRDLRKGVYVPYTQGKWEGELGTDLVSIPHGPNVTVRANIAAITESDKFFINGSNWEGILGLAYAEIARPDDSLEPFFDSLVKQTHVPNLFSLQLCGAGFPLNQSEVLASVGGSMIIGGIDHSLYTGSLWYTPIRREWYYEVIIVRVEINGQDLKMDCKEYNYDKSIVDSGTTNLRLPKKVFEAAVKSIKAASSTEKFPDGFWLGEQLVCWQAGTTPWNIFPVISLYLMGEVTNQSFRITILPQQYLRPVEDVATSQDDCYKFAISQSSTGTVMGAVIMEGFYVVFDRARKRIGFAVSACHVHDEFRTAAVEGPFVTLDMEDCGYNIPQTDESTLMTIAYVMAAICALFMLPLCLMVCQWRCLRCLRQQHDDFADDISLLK
Sequence of human BChE (P06276 29-602): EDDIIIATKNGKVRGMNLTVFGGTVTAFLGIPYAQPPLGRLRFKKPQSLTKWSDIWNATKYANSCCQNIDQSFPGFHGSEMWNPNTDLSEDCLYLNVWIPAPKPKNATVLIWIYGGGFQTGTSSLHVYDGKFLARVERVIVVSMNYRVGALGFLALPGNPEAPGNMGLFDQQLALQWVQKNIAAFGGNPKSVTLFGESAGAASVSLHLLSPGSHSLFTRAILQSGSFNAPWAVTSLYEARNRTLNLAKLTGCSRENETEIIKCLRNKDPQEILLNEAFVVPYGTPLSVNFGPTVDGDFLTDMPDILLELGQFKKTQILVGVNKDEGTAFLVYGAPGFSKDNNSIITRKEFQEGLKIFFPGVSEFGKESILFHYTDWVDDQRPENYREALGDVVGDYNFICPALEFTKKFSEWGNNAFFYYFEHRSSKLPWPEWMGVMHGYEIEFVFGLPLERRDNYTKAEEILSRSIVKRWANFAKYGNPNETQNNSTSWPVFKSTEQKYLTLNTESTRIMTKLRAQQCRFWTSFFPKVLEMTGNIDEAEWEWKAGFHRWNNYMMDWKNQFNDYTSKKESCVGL

| SMILES | inhibition at 1000 µM (AChE [1]) | inhibition at 100 µM (AChE [1]) | inhibition at 100 µM (human BChE) | inhibition at 1000 µM (human BChE) | IC50 [2] | IC50 (AChE [1]) | inhibition at 10 µM (AChE [1]) | inhibition at 1 µM (AChE [1]) | inhibition at 0.1 µM (AChE [1]) | inhibition at 0.01 µM (AChE [1]) | inhibition at 0.001 µM (AChE [1]) | β-secretase (BACE-1) IC50 [2] | type of AChE inhibition (AChE [3]) |
| --- | --- | --- | --- | --- | --- | --- | --- | --- | --- | --- | --- | --- | --- |
| COc1ccc(N2CCN(C(=S)SCc3c(C(=O)c4ccccc4)oc4ccccc34)CC2)cc1 [4l, (2-Benzoylbenzofuran-3-yl)methyl 4-(4-Methoxyphenyl)piperazine-1-dithiocarbamate] | 72.3 ± 1.1% | 43.9 ± 0.98% | 21.4 ± 0.87% | 30.5 ± 0.87% | – | – | – | – | – | – | – | – | – |
| CC1CCN(C(=S)SCc2c(C(=O)c3ccccc3)oc3ccccc23)CC1 [4d, (2-Benzoylbenzofuran-3-yl)methyl 4-Methylpiperidine-1-dithiocarbamate] | 63.8 ± 1.59% | 40.7 ± 0.97% | 24.4 ± 0.93% | 28.3 ± 0.81% | – | – | – | – | – | – | – | – | – |
| O=C(c1ccccc1)c1oc2ccccc2c1CSC(=S)N1CCN(C(=O)c2ccco2)CC1 [4h, (2-Benzoylbenzofuran-3-yl)methyl 4-(Furan-2-carbonyl)piperazine-1-dithiocarbamate] | 90.7 ± 1.24% | 84.2 ± 1.33% | 28.3 ± 0.82% | 36.8 ± 0.76% | 155 ± 7 nM | 54 ± 2 nM | 80.3 ± 1.1% | 75.9 ± 1.32% | 60.3 ± 0.97% | 45.7 ± 0.87% | 23 ± 0.78% | – | – |
| O=C(c1ccccc1)c1oc2ccccc2c1CSC(=S)N1CCC(Cc2ccccc2)CC1 [4e, (2-Benzoylbenzofuran-3-yl)methyl 4-Benzylpiperidine-1-dithiocarbamate] | 92.6 ± 1.38% | 88.6 ± 1.4% | 29 ± 0.73% | 35.6 ± 0.88% | 134 ± 6 nM | 49 ± 2 nM | 80.2 ± 1.11% | 74.3 ± 1.5% | 61.6 ± 0.92% | 45.4 ± 0.72% | 21.5 ± 0.86% | – | – |
| O=C(c1ccccc1)c1oc2ccccc2c1CSC(=S)N1CCN(c2ccc(F)cc2)CC1 [4o, (2-Benzoylbenzofuran-3-yl)methyl 4-(4-Fluorophenyl)piperazine-1-dithiocarbamate] | 91.2 ± 1.57% | 83.6 ± 1.47% | 30.3 ± 0.82% | 37.5 ± 0.75% | > 10000 nM | 41 ± 2 nM | 75 ± 1.67% | 65.8 ± 1.1% | 58.3 ± 1% | 48 ± 0.95% | 20.8 ± 0.74% | no significant inhibition | – |
| O=C(c1ccccc1)c1oc2ccccc2c1CSC(=S)N1CCN(c2ccc(Cl)cc2)CC1 [4n, (2-Benzoylbenzofuran-3-yl)methyl 4-(4-Chlorophenyl)piperazine-1-dithiocarbamate] | 76.7 ± 1.26% | 46.8 ± 0.86% | 20.1 ± 0.78% | 29.6 ± 0.86% | – | – | – | – | – | – | – | – | – |
| O=C(c1ccccc1)c1oc2ccccc2c1CSC(=S)N1CCN(c2ccccc2)CC1 [4j, (2-Benzoylbenzofuran-3-yl)methyl 4-Phenylpiperazine-1-dithiocarbamate] | 75.6 ± 1.05% | 41 ± 0.79% | 24.9 ± 0.92% | 31.6 ± 0.73% | – | – | – | – | – | – | – | – | – |
| CC1CCCCN1C(=S)SCc1c(C(=O)c2ccccc2)oc2ccccc12 (stereo not drawn) [4b, (2-Benzoylbenzofuran-3-yl)methyl 2-Methylpiperidine-1-dithiocarbamate] | 58.4 ± 1.9% | 43.4 ± 1.62% | 27.3 ± 0.79% | 33.9 ± 0.9% | – | – | – | – | – | – | – | – | – |
| CN(C)CCCN1CCN(C(=S)SCc2c(C(=O)c3ccccc3)oc3ccccc23)CC1 [4g, (2-Benzoylbenzofuran-3-yl)methyl 4-(3-(Dimethylamino)propyl)piperazine-1-dithiocarbamate] | 69 ± 0.97% | 39.1 ± 0.87% | 21.7 ± 0.93% | 29.3 ± 0.89% | – | – | – | – | – | – | – | – | – |
| O=C(c1ccccc1)c1oc2ccccc2c1CSC(=S)N1CCN(c2ncccn2)CC1 [4i, (2-Benzoylbenzofuran-3-yl)methyl 4-(Pyrimidine-2-yl)piperazine-1-dithiocarbamate] | 72.8 ± 1% | 43.6 ± 0.87% | 20.8 ± 0.88% | 28.6 ± 0.82% | – | – | – | – | – | – | – | – | – |
| O=C(c1ccccc1)c1oc2ccccc2c1CSC(=S)N1CCCCC1 [4a, (2-Benzoylbenzofuran-3-yl)methylpiperidine-1-dithiocarbamate] | 65.2 ± 1.02% | 40.7 ± 0.98% | 25.8 ± 0.92% | 31.7 ± 0.89% | – | – | – | – | – | – | – | – | – |
| O=C(c1ccccc1)c1oc2ccccc2c1CSC(=S)N1CCN(CCO)CC1 [4m, (2-Benzoylbenzofuran-3-yl)methyl 4-(2-Hydroxyethyl)piperazine-1-dithiocarbamate] | 94.3 ± 1.64% | 89.4 ± 1.5% | 31.1 ± 0.73% | 39.1 ± 0.76% | 84 ± 3 nM | 29 ± 1 nM | 80.2 ± 1.48% | 75.4 ± 1.1% | 70.4 ± 1.21% | 44.7 ± 0.97% | 26.6 ± 0.72% | – | reversible and mixed-type inhibitor |
| CC1CCCN(C(=S)SCc2c(C(=O)c3ccccc3)oc3ccccc23)C1 (stereo not drawn) [4c, (2-Benzoylbenzofuran-3-yl)methyl 3-Methylpiperidine-1-dithiocarbamate] | 71.7 ± 1.1% | 43 ± 0.89% | 22.1 ± 0.84% | 30.4 ± 0.9% | – | – | – | – | – | – | – | – | – |
| O=C(c1ccccc1)c1oc2ccccc2c1CSC(=S)N1CCOCC1 [4f, (2-Benzoylbenzofuran-3-yl)methyl Morpholine-4-dithiocarbamate] | 70.8 ± 1.12% | 41.3 ± 0.9% | 20.7 ± 0.86% | 28.4 ± 0.92% | – | – | – | – | – | – | – | – | – |
| O=C(c1ccccc1)c1oc2ccccc2c1CSC(=S)N1CCN(c2ccc([N+](=O)[O-])cc2)CC1 [4k, (2-Benzoylbenzofuran-3-yl)methyl 4-(4-Nitrophenyl)piperazine-1-dithiocarbamate] | 69 ± 1% | 41.6 ± 0.95% | 23.6 ± 0.83% | 30.4 ± 0.93% | – | – | – | – | – | – | – | – | – |

— PMC12332554, “Novel Benzofuran-3-yl-methyl and Aliphatic Azacyclics: Design, Synthesis, and In Vitro and In Silico anti-Alzheimer Disease Activity Studies” (ACS Omega, 2025)
